# Tests used:
# Experiment in all cases: relative viability (nuclei count vs DMSO), 5 days (fraction); higher = more cells survive
# [1] = test system: PC-3 [JPC-3]
# Method in brief: (§1)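 Five library-drug doses in √10 steps were combined with a fixed anchor-drug dose, or a single drug was given alone, by pin tool to lung cancer cell lines in 1536-well plates the day after seeding. Nuclei were stained and counted after 5 days. Relative viability is the nuclei count in treated wells over that in vehicle wells, taken as the median of duplicate plates.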
# [2] = test system: LK-2
# Method in brief: as §1
# [3] = test system: RERF-LC-KJ
# Method in brief: as §1
# [4] = test system: EMC-BAC-2
# Method in brief: as §1
# [5] = test system: HOP-62
# Method in brief: as §1
# [6] = test system: NCI-H727
# Method in brief: as §1
# [7] = test system: NCI-H3122
# Method in brief: as §1
# [8] = test system: NCI-H596
# Method in brief: as §1
# [9] = test system: UMC-11
# Method in brief: as §1
# [10] = test system: COR-L23
# Method in brief: as §1
# [11] = test system: CAL-12T
# Method in brief: as §1
smiles,measurement,setting,value
Cc1csc(=NC2CCCCC2)n1/N=C/c1ccc(O)c(O)c1O [MIM1] + CC(=O)Nc1cccc(-n2c(=O)n(C3CC3)c(=O)c3c(Nc4ccc(I)cc4F)n(C)c(=O)c(C)c32)c1 [Trametinib] (partner 0.02 µM),relative viability,[1]; first compound 0.2 µM,0.643
same,relative viability,[1]; first compound 0.6325 µM,0.687
same,relative viability,[1]; first compound 2 µM,0.655
same,relative viability,[1]; first compound 6.325 µM,0.521
same,relative viability,[1]; first compound 20 µM,0.558
same,relative viability,[2]; first compound 0.2 µM,1.02
same,relative viability,[2]; first compound 0.6325 µM,0.693
same,relative viability,[2]; first compound 2 µM,0.625
same,relative viability,[2]; first compound 6.325 µM,1.02
same,relative viability,[2]; first compound 20 µM,0.236
same,relative viability,[3]; first compound 0.2 µM,0.832
same,relative viability,[3]; first compound 0.6325 µM,0.801
same,relative viability,[3]; first compound 2 µM,0.666
same,relative viability,[3]; first compound 6.325 µM,0.56
same,relative viability,[3]; first compound 20 µM,0.3
same,relative viability,[4]; first compound 0.2 µM,0.889
same,relative viability,[4]; first compound 0.6325 µM,0.799
same,relative viability,[4]; first compound 2 µM,0.702
same,relative viability,[4]; first compound 6.325 µM,0.73
same,relative viability,[4]; first compound 20 µM,0.355
same,relative viability,[5]; first compound 0.2 µM,0.386
same,relative viability,[5]; first compound 0.6325 µM,0.417
same,relative viability,[5]; first compound 2 µM,0.379
same,relative viability,[5]; first compound 6.325 µM,0.344
same,relative viability,[5]; first compound 20 µM,0.266
same,relative viability,[6]; first compound 0.2 µM,0.371
same,relative viability,[6]; first compound 0.6325 µM,0.407
same,relative viability,[6]; first compound 2 µM,0.393
same,relative viability,[6]; first compound 6.325 µM,0.427
same,relative viability,[6]; first compound 20 µM,0.383
same,relative viability,[7]; first compound 0.2 µM,0.239
same,relative viability,[7]; first compound 0.6325 µM,0.244
same,relative viability,[7]; first compound 2 µM,0.261
same,relative viability,[7]; first compound 6.325 µM,0.302
same,relative viability,[7]; first compound 20 µM,0.125
same,relative viability,[8]; first compound 0.2 µM,0.702
same,relative viability,[8]; first compound 0.6325 µM,0.95
same,relative viability,[8]; first compound 2 µM,0.745
same,relative viability,[8]; first compound 6.325 µM,0.667
same,relative viability,[8]; first compound 20 µM,0.56
same,relative viability,[9]; first compound 0.2 µM,0.724
same,relative viability,[9]; first compound 0.6325 µM,0.267
same,relative viability,[9]; first compound 2 µM,0.751
same,relative viability,[9]; first compound 6.325 µM,0.475
same,relative viability,[9]; first compound 20 µM,0.156
same,relative viability,[10]; first compound 0.2 µM,0.509
same,relative viability,[10]; first compound 0.6325 µM,0.619
same,relative viability,[10]; first compound 2 µM,0.571
same,relative viability,[10]; first compound 6.325 µM,0.388
same,relative viability,[10]; first compound 20 µM,0.306
same,relative viability,[11]; first compound 0.2 µM,0.406
same,relative viability,[11]; first compound 0.6325 µM,0.378

# Source: the supplement of paper PMC10307832
